According to ChEMBL document CHEMBL2380283, “Design and synthesis of thiophene dihydroisoquinolines as novel BACE1 inhibitors” (Bioorg Med Chem Lett, 2013):
pIC50: −log10 of the molar value.

Experiments:
[1] = molecular target: T1, Beta-secretase 1 (Homo sapiens, UniProt P56817); experiment: Inhibition of BACE1 (unknown origin) by Alpha screen assay
[2] = molecular target: Cathepsin D (Homo sapiens, UniProt P07339); experiment: Inhibition of cathepsin-D (unknown origin) after 110 mins by fluorescence polarization assay
[3] = molecular target: T1, Beta-secretase 1; experiment: Inhibition of recombinant BACE1 (unknown origin) expressed in Escherichia coli using biotinylated APP swidesh mutant as substrate incubated for 20 mins prior to substrate addition measured after 3 hrs by fluorescence polarization assay
[4] = Apparent permeability across apical to basolateral side in MDCK cells expressing MDR1 at 5 uM after 120 mins by LC/MS/MS analysis; type: ADME, cell-based, Canis lupus familiaris; conditions: dog

T1 sequence (P56817 whole entry): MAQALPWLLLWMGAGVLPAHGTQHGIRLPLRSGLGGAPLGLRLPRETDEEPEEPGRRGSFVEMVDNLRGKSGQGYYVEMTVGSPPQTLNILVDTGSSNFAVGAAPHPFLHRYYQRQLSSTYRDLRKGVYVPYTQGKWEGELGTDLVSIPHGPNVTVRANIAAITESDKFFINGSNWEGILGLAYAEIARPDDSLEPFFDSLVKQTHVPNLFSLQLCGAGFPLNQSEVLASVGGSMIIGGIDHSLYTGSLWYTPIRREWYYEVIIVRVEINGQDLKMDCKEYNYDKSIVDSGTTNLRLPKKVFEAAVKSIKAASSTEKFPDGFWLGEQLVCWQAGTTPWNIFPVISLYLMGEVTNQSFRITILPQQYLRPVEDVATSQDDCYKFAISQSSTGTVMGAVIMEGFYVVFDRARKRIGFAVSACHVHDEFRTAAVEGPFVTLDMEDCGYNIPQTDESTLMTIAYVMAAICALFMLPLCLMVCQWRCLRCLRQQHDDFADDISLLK
Chain of Cathepsin D (P07339 65-162 limits assumed): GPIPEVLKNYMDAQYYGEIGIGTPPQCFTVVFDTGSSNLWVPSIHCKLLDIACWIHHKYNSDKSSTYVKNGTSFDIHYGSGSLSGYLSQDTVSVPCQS
Chain of Cathepsin D (P07339 169-412 limits assumed): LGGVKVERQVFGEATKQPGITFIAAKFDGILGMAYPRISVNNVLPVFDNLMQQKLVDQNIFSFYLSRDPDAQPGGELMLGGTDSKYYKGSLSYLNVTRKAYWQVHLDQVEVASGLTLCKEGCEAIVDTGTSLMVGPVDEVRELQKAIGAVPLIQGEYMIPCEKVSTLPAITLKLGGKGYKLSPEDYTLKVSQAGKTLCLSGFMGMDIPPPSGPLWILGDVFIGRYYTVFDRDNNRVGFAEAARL

A pIC50 [1] of 3.58 was found for `CC1(C)Cc2cc(Cl)ccc2C(N[C@H](Cc2ccccc2)C(=O)O)=N1` in this work.

A pIC50 [1] of 5.54 was found for `CC1(C)Cc2cc(Cl)ccc2C(NC(Cc2ccsc2)C(=O)O)=N1` (stereo not drawn) in this work.

A pIC50 [1] of 6.51 was found for `CC1(C)Cc2cc(Cl)ccc2C(NC(Cc2cscc2Br)C(=O)O)=N1` (stereo not drawn) in this work.

A pIC50 [1] of 5.02 was found for `CC1(C)Cc2cc(Cl)ccc2C(NC(Cc2ccsc2Br)C(=O)O)=N1` (stereo not drawn) in this work.

A pIC50 [1] of 6.15 was found for `CC1(C)Cc2cc(Cl)ccc2C(NC(Cc2sccc2Br)C(=O)O)=N1` (stereo not drawn) in this work.

A pIC50 [1] of 5.73 was found for `CC1(C)Cc2cc(Cl)ccc2C(NC(Cc2cscc2-c2ccncc2)C(=O)O)=N1` (stereo not drawn) in this work.

A pIC50 [1] of 6.09 was found for `CC1(C)Cc2cc(Cl)ccc2C(NC(Cc2cscc2-c2ncco2)C(=O)O)=N1` (stereo not drawn) in this work.

A pIC50 [1] of 5.90 was found for `CC1(C)Cc2cc(Cl)ccc2C(NC(Cc2cscc2-c2cc[nH]n2)C(=O)O)=N1` (stereo not drawn) in this work.

A pIC50 [1] of 6.35 was found for `CC1(C)Cc2cc(Cl)ccc2C(NC(Cc2cscc2-c2cn[nH]c2)C(=O)O)=N1` (stereo not drawn) in this work.

A pIC50 [1] of 5.96 was found for `Cn1cc(-c2cscc2CC(NC2=NC(C)(C)Cc3cc(Cl)ccc32)C(=O)O)cn1` (stereo not drawn) in this work.

A pIC50 [1] of 6.20 was found for `CCc1cscc1CC(NC1=NC(C)(C)Cc2cc(Cl)ccc21)C(=O)O` (stereo not drawn) in this work.

A pIC50 [1] of 6.21 was found for `CCCc1cscc1CC(NC1=NC(C)(C)Cc2cc(Cl)ccc21)C(=O)O` (stereo not drawn) in this work.

A pIC50 [1] of 6.24 was found for `CC1(C)Cc2cc(Cl)ccc2C(NC(Cc2cscc2CCC2CC2)C(=O)O)=N1` (stereo not drawn) in this work.

A pIC50 [1] of 5.61 was found for `CC1(C)Cc2cc(Cl)ccc2C(NC(Cc2cscc2C2CC2)C(=O)O)=N1` (stereo not drawn) in this work.

A pIC50 [1] of 6.12 was found for `C#Cc1cscc1CC(NC1=NC(C)(C)Cc2cc(Cl)ccc21)C(=O)O` (stereo not drawn) in this work.

A pIC50 [1] of 6.29 was found for `CC#Cc1cscc1CC(NC1=NC(C)(C)Cc2cc(Cl)ccc21)C(=O)O` (stereo not drawn) in this work.

With `CCCc1scc(-c2cn[nH]c2)c1CC(NC1=NC(C)(C)Cc2cc(Cl)ccc21)C(=O)O` (stereo not drawn) the pIC50 [2] was < 4.52, the pIC50 [3] was 6.40 and the pIC50 [1] was 8.10.

With `CCCc1scc(-c2cn[nH]c2)c1CC(NC1=NC(C)(C)Cc2cc(Cl)ccc21)c1nccc(=O)[nH]1` (stereo not drawn) the Papp A→B at 2 h, 5 µM [4] was 10 ×10⁻⁶ cm/s, the pIC50 [2] was < 4.52 and the pIC50 [3] was 4.40. For the same compound, the pIC50 [1] was 6.39.
